The values that follow come from patent US20180147189A1, “ADMINISTRATION REGIMEN FOR THERAPEUTIC AGENTS FOR ATAXIA IN SPINOCEREBELLAR DEGENERATION” (KISSEI PHARMACEUTICAL CO., LTD., priority 2015, published 2018).

The nature of data set [1]: Repeated dose study in healthy adult males. The format is in vivo, human. As to conditions: for transition of FT3 value (serum concentration, mean) / transition of FT4 values (serum concentration, mean): oral, 9 days. The procedure: To 50 healthy adult males (8 individuals per group and 10 on placebo), rovatirelin trihydrate (0.25, 0.5 or 1.0 mg) or placebo was orally administered once daily or rovatirelin trihydrate (0.25 or 0.5 mg) or placebo was orally administered twice daily after breakfast and after dinner, for 9 consecutive days.
Serum concentrations (mean) of FT3, FT4, TSH, and prolactin (PRL), and adverse events and the like were evaluated.

In data set [2] the test system is SCD patients. As to the kind of experiment: Clinical trial of SCD patients (Phase II study). The format is in vivo, human. The note with it: for amount of change in the SARA total score: 24 weeks, pure cerebellar SCD patients, mean. The method, then:
Rovatirelin trihydrate (0.4, 0.8, 1.6 or 3.2 mg) or placebo was orally administered to 225 SCD patients once daily after breakfast for 24 weeks (double-blind).
The efficacy endpoint was the amount of change in the SARA total score calculated by, as an example, the SARA total score at the final assessment in the treatment period (the final observed value in the treatment period) minus that at the end of the pre-observation period as an example. The safety endpoints were, as an example, the occurrence of adverse events and side effects, physiological examinations (e.g., blood pressure and pulses), and endocrinologic examinations (e.g., FT3 and FT4).
It is noted that the SARA total score was calculated by a sum of the SARA scores for each item ((i.e., gait (score 0-8), stance (score 0-6), sitting (score 0-4), speech disturbance (score 0-6), finger chase (score 0-4), nose-finger test (score 0-4), fast alternating hand movements (score 0-4), and heel-shin slide (score 0-4) (the score 0 is normal for all items)).

Data set [3] concerns patients with pure cerebellar SCD. As to the kind of experiment: Clinical trial of pure cerebellar SCD patients (Phase III study). The format is in vivo, human. The procedure: Rovatirelin trihydrate at a dose of 1.6 or 2.4 mg or placebo was orally administered to patients with pure cerebellar SCD (SCA6, SCA31 or cortical cerebellar atrophy (CCA)) with ataxia once daily after breakfast for 28 weeks (double-blind; 124 patients in the 1.6 mg group, 122 patients in the 2.4 mg group, and 123 patients in the placebo group).
To appropriately assess the efficacy of rovatirelin trihydrate on ataxia, this study was performed on pure cerebellar SCD patients with a SARA gait score between 2 and 6 and a SARA total score of ≥6.
The same items as those listed in Example 3 were used as efficacy and safety endpoints. SCD is a disease that automatically becomes worse; therefore it is important in the treatment to retard the deterioration. Accordingly, patients with a […] in their SARA score compared with the time in week 0 were defined as deteriorated patients, and deterioration rates (i.e., the number of deteriorated patients/total number of patients) in the SARA total score and SARA scores for each item were calculated.

For data set [4], the system named is pure cerebellar SCD patients. As to the kind of experiment: Long-term extension study of pure cerebellar SCD patients. Type of data set: in vivo, human. As to conditions: 2.4 mg once daily, at 52 weeks. The method, then:
For patients who completed the phase III study (Example 4), rovatirelin trihydrate was administered at 1.6 or 2.4 mg once daily for 52 weeks (open-label parallel-group comparative study).
The same items as those listed in Example 4 were used as efficacy and safety endpoints, and deterioration rates (i.e., the number of deteriorated patients/total number of patients) in the SARA total score and SARA scores for each items were calculated in a similar manner.

The subject of data set [5] is SCD patients. Nature of the data set: Study of switch from conventional drugs to rovatirelin in SCD patients. Type of data set: in vivo, human. The note with it: switch group from taltirelin, 24 weeks, P<0.01. The method, then:
To the patients were orally administered rovatirelin trihydrate at 1.6 or 2.4 mg once daily after breakfast for 24 weeks (randomized, open-label parallel-group comparative study).
A 4-week pre-observation period was set prior to the start of the treatment period. For patients who received a conventional SCD agent taltirelin or protirelin agent (TRH agent) before the pre-observation period, the medication was continued until the end of the pre-observation period without changing its dosage and administration.
The same items as those listed in Example 4 were used as efficacy and safety endpoints.

In data set [6] the test system is ataxia in SCD. The note with it: NPL 3, cited from earlier work.
Data set [7] is described as follows: Pharmacokinetic study in humans, single dose on an empty stomach. As to conditions: single dose 0.1-10 mg, healthy adult males. The format is in vivo, human. The method, then: Rovatirelin trihydrate (0.1, 0.3, 1, 2.5, 5 or 10 mg) or placebo was administered to 48 healthy adult males (6 individuals per group and 12 on placebo) as a single dose on an empty stomach. Analysis of the pharmacokinetics of intact rovatirelin under this condition indicated linearity of Cmax (maximum plasma concentration), AUC0-∞ (area under the plasma concentration curve vs. time curve from time 0 to infinity), and Ae0-48 (cumulative amount excreted into urine from time 0-48 hours) of rovatirelin in a dosage range from 0.1-10 mg.

The subject of data set [8] is animal models. As to conditions: PTL 2; cited from earlier work.
The conditions of data set [9]: PTL 2; cited from earlier work.
Setting [10] is: 0.5 mg once daily (0.5 mg/qd) compared with 0.25 mg twice daily.
The mark [11] stands for this setting: 1 mg once daily (1 mg/qd) compared with 0.5 mg twice daily.
Setting [12] is: 2.4 mg group, elderly aged ≥65 years.

`C[C@@H]1OC(=O)N[C@@H]1C(=O)N[C@@H](Cc1cscn1)C(=O)N1CCC[C@H]1C` [rovatirelin trihydrate]: the “transition of FT3 value (serum concentration, mean)” value in data set [1] (setting [10]) and in [1] (setting [11]) was “proceeded at lower levels as a whole” throughout. For the same compound, the “transition of FT4 values (serum concentration, mean)” value in [1] (setting [10]) is “comparable for both groups or the transition for the 0.5 mg/qd group proceeded at slightly lower levels”; in data set [1] (setting [11]), “proceeded at lower levels as a whole”. Further, the “FT4 concentrations versus reference limit” value in data set [1] (0.5 mg twice daily, Day 5 and Day 9, reference limits 0.9 and 1.7 ng/dL) is reported as “above the reference limit”. The “amount of change in the SARA total score” value in data set [2] (0.4 mg once daily) is recorded as −1.09 score; in data set [2] (0.8 mg once daily), −1.27 score; in [2] (1.6 mg once daily) it was −1.58 score; in data set [2] (3.2 mg once daily), −1.65 score; in data set [3] (1.6 mg once daily, 28 weeks, compared with pre-dose score) it was −0.75; in data set [3] (setting [12]) it was −1.39. Besides, the “amount of change in the SARA total score” value is listed as −1.22 in data set [3] (2.4 mg once daily, 28 weeks, compared with pre-dose score) and −1.41 in data set [4] (81 patients who completed). For the same compound, the discontinuation rate in data set [2] (1.6 mg group (placebo 15.6%)) is 17.8%; in data set [2] (3.2 mg group (placebo 15.6%)), 28.9%; in [3] (1.6 mg group (placebo 4.9%)), 16.0%; in [3] (2.4 mg group (placebo 4.9%)), 19.8%. Besides, in data set [2] (3.2 mg once daily), the “FT3 and FT4 concentrations versus upper reference limits” value was “slightly above the upper reference limits”. For the same compound, in data set [2] (3.2 mg once daily, P=0.002), the “side effect rate compared with placebo (Fisher's exact test)” value was “significantly differed”. Also, the “FT3 and FT4 concentrations versus normal range” value in [3] (1.6 mg and 2.4 mg groups, 4 weeks after the start of administration, no further increase subsequently) was “reached the upper limit of the normal range”. Besides, the “SARA gait and stance scores compared with the placebo group” value in data set [3] (1.6 mg group) is recorded as “no improvement was observed”. Moreover, the “SARA total score compared with the placebo group” value in data set [3] (1.6 mg group) is “no improvement was observed”. The figures for the “deterioration rate of the SARA total score” value in [3] (2.4 mg group (placebo 30.9%)) and in [4] were 23.8% and 21.0%, respectively. For the same compound, the “amount of change in the SARA gait score” value in data set [3] (setting [12]) was −0.19. Also, the “amount of change in the SARA stance score” value in data set [3] (setting [12]) is on record as −0.54. Also, in [4], the “deterioration rate for items (gait)” value came out at 9.9%. For the same compound, the “amount of change in the SARA total score at an endpoint” value in data set [5] (1.6 mg once daily) was −1.34; in data set [5] (2.4 mg once daily), −1.35.
On to `CN1C(=O)C[C@@H](C(=O)N[C@@H](Cc2cnc[nH]2)C(=O)N2CCC[C@H]2C(N)=O)NC1=O.O.O.O.O` [Taltirelin hydrate], for which, in data set [6] (after 28 weeks, ataxia in SCD), the “total improvement level (subjective assessment of a physician) versus placebo” value is “significant difference”. Moreover, the “individual symptoms (symptom of ataxia)” value in data set [6] (phase III double-blind comparative study) was “no significant improvement was observed”.
Take `C[C@@H]1OC(=O)N[C@@H]1C(=O)N[C@@H](Cc1cscn1)C(=O)N1CCC[C@H]1C` [rovatirelin, (4S,5S)-5-methyl-N-{(2S)-1-[(2R)-2-methylpyrrolidin-1-yl]-1-oxo-3-(1,3-thiazol-4-yl)propan-2-yl}-2-oxo-1,3-oxazolidine-4-carboxamide]: in data set [7], the “dose proportionality of AUC0-∞” value is on record as “linearity”, the “dose proportionality of Ae0-48 (cumulative amount excreted into urine 0-48 hours)” value was “linearity” and the “dose proportionality of Cmax (maximum plasma concentration)” value is “linearity”. The “effects in improving ataxia relative to taltirelin” value in [8] is on record as “at least 30 times”. In data set [9], the “bioavailability (BA)” value was “high”.
